Entries after “also recorded” stand apart in the source; their conditions may differ.
How the values were obtained:
P-PRAS40 = assay: Western blotting of P-PRAS40 in SW620 cells; settings: 1 μM
AKT [1] = assay: Western blotting of total AKT; type: cell-based; settings: PC3 cells, 1 μM, 24 h
[2] = test system: P-AKT (S473), P-PRAS40 (T246), P-S6 (S240/244); assay: Western blotting of downstream signaling in PC3 cells; type: cell-based; settings: 1 μM, 24 h
AKT [3] = assay: Western blotting of T-AKT in SW620 cells; type: cell-based; settings: SW620 cells
AKT [4] = assay: Western blotting of T-AKT in PANC-1 cells; type: cell-based; settings: PANC-1 cells (KRAS mutant), 1 μM, 24 h
SW620 cells = assay: Colony formation assay in SW620 cells; type: cell-based; settings: 2 weeks, crystal violet

In the case of Nc1ncccc1-c1nc2ccc(-c3ccccc3)nc2n1-c1ccc(C2(N)CCC2)cc1 [ARQ-092, 3-(3-(4-(1-Aminocyclobutyl)phenyl)-5-phenyl-3H-imidazo[4,5-b]pyridin-2-yl)pyridin −2-amine, reference compound], the “phosphorylation of PRAS40 in time-course study (in words)” value (P-PRAS40; up to 24 h) is reported as “potently inhibited”.
For Cc1ncsc1-c1ccc(CNC(=O)[C@@H]2C[C@@H](O)CN2C(=O)[C@@H](NC(=O)CNC(=O)CCc2cccc(-c3ccc4nc(-c5cccnc5N)n(-c5ccc(C6(N)CCC6)cc5)c4n3)c2)C(C)(C)C)cc1 [Compound 11, (2S,4R)-1-((S)-2-(2-(3-(3-(3-(4-(1-Aminocyclobutyl)phenyl)-2-(2-aminopyridin-3-yl)-3H-imidazo[4,5-b]pyridin-5-yl)phenyl)propanamido)acetamido)-3,3-dimethylbutanoyl)-4-hydroxy-N-(4-(4-methylthiazol-5-yl)benzyl)pyrrolidine-2-carboxamide], the “T-AKT protein level / AKT degradation (western blot, in words)” value (“T-AKT protein level / AKT degradation” for short) (AKT [1]) was “completely inactive”.
For Cc1ncsc1-c1ccc(CNC(=O)[C@@H]2C[C@@H](O)CN2C(=O)[C@@H](NC(=O)CCNC(=O)CCc2cccc(-c3ccc4nc(-c5cccnc5N)n(-c5ccc(C6(N)CCC6)cc5)c4n3)c2)C(C)(C)C)cc1 [Compound 12, (2S,4R)-1-((S)-2-(3-(3-(3-(3-(4-(1-Aminocyclobutyl)phenyl)-2-(2-aminopyridin-3-yl)-3H-imidazo[4,5-b]pyridin-5-yl)phenyl)propanamido)propanamido)-3,3-dimethylbutanoyl)-4-hydroxy-N-(4-(4-methylthiazol-5-yl)benzyl)pyrrolidine-2-carboxamide], the “T-AKT protein level / AKT degradation” value (AKT [1]) was “completely inactive”.
In the case of Cc1ncsc1-c1ccc(CNC(=O)[C@@H]2C[C@@H](O)CN2C(=O)[C@@H](NC(=O)CCCCCCCCCCNC(=O)CCc2cccc(-c3ccc4nc(-c5cccnc5N)n(-c5ccc(C6(N)CCC6)cc5)c4n3)c2)C(C)(C)C)cc1 [Compound 20, (2S,4R)-1-((S)-2-(11-(3-(3-(3-(4-(1-Aminocyclobutyl)phenyl)-2-(2-aminopyridin-3-yl)-3H-imidazo[4,5-b]pyridin-5-yl)phenyl)propanamido)undecanamido)-3,3-dimethylbutanoyl)-4-hydroxy-N-(4-(4-methylthiazol-5-yl)benzyl)pyrrolidine-2-carboxamide], the “T-AKT protein level / AKT degradation” value (AKT [1]) is reported as “highly effective AKT degraders”.
In the case of Cc1ncsc1-c1ccc(CNC(=O)[C@@H]2C[C@@H](O)CN2C(=O)[C@@H](NC(=O)COCC(=O)NCCc2cccc(-c3ccc4nc(-c5cccnc5N)n(-c5ccc(C6(N)CCC6)cc5)c4n3)c2)C(C)(C)C)cc1 [Compound 33, (2S,4R)-1-((S)-2-(2-(2-((3-(3-(4-(1-Aminocyclobutyl)phenyl)-2-(2-aminopyridin-3-yl)-3H-imidazo[4,5-b]pyridin-5-yl)phenethyl)amino)-2-oxoethoxy)acetamido)-3,3-dimethylbutanoyl)-4-hydroxy-N-(4-(4-methylthiazol-5-yl)benzyl)pyrrolidine-2-carboxamide], the “T-AKT protein level / AKT degradation” value (AKT [1]) is reported as “effectively induced T-AKT degradation”.
In the case of Cc1ncsc1-c1ccc(CNC(=O)[C@@H]2C[C@@H](O)CN2C(=O)[C@@H](NC(=O)CCOCCC(=O)NCCc2cccc(-c3ccc4nc(-c5cccnc5N)n(-c5ccc(C6(N)CCC6)cc5)c4n3)c2)C(C)(C)C)cc1 [Compound 34, (2S,4R)-1-((S)-2-(3-(3-((3-(3-(4-(1-Aminocyclobutyl)phenyl)-2-(2-aminopyridin-3-yl)-3H-imidazo[4,5-b]pyridin-5-yl)phenethyl)amino)-3-oxopropoxy)propanamido)-3,3-dimethylbutanoyl)-4-hydroxy-N-(4-(4-methylthiazol-5-yl)benzyl)pyrrolidine-2-carboxamide], the “T-AKT protein level / AKT degradation” value (AKT [1]) is reported as “effectively induced T-AKT degradation”.
In the case of Cc1ncsc1-c1ccc(CNC(=O)[C@@H]2C[C@@H](O)CN2C(=O)[C@@H](NC(=O)COCCOCCOCCOCCOCC(=O)NCCc2cccc(-c3ccc4nc(-c5cccnc5N)n(-c5ccc(C6(N)CCC6)cc5)c4n3)c2)C(C)(C)C)cc1 [Compound 40, N^1-(3-(3-(4-(1-Aminocyclobutyl)phenyl)-2-(2-aminopyridin-3-yl)-3H-imidazo[4,5-b]pyridin-5-yl)phenethyl)-N^17-((S)-1-((2S,4R)-4-hydroxy-2-((4-(4-methylthiazol-5-yl)benzyl)carbamoyl)pyrrolidin-1-yl)-3,3-dimethyl-1-oxobutan-2-yl)-3,6,9,12,15-pentaoxaheptadecanediamide], the “T-AKT protein level / AKT degradation” value (AKT [1]) is reported as “restored effective AKT degradation activity”.
With Cc1ncsc1-c1ccc(CNC(=O)[C@@H]2C[C@@H](O)CN2C(=O)[C@@H](NC(=O)CCOCCOCCOCCOCCOCCC(=O)NCCc2cccc(-c3ccc4nc(-c5cccnc5N)n(-c5ccc(C6(N)CCC6)cc5)c4n3)c2)C(C)(C)C)cc1 [Compound 41, N^1-(3-(3-(4-(1-Aminocyclobutyl)phenyl)-2-(2-aminopyridin-3-yl)-3H-imidazo[4,5-b]pyridin-5-yl)phenethyl)-N^19-((S)-1-((2S,4R)-4-hydroxy-2-((4-(4-methylthiazol-5-yl)benzyl)carbamoyl)pyrrolidin-1-yl)-3,3-dimethyl-1-oxobutan-2-yl)-4,7,10,13,16-pentaoxanonadecanediamide] the “T-AKT protein level / AKT degradation” value (AKT [1]) was “restored effective AKT degradation activity”.
In the case of Cc1ncsc1-c1ccc(CNC(=O)[C@@H]2C[C@@H](O)CN2C(=O)[C@@H](NC(=O)CCCCCCCC(=O)NCCc2cccc(-c3ccc4nc(-c5cccnc5N)n(-c5ccc(C6(N)CCC6)cc5)c4n3)c2)C(C)(C)C)cc1 [Compound 47, N^1-(3-(3-(4-(1-Aminocyclobutyl)phenyl)-2-(2-aminopyridin-3-yl)-3H-imidazo[4,5-b]pyridin-5-yl)phenethyl)-N^9-((S)-1-((2S,4R)-4-hydroxy-2-((4-(4-methylthiazol-5-yl)benzyl)carbamoyl)pyrrolidin-1-yl)-3,3-dimethyl-1-oxobutan-2-yl)nonanediamide], the “T-AKT protein level / AKT degradation” value (AKT [1]) is reported as “particularly effective in T-AKT degradation” and the “downstream signaling inhibition (P-AKT, P-PRAS40, P-S6; western blot, in words)” value [2] is reported as “particularly effective”.
For Cc1ncsc1-c1ccc(CNC(=O)[C@@H]2C[C@@H](O)CN2C(=O)[C@@H](NC(=O)CCCCCCCCC(=O)NCCc2cccc(-c3ccc4nc(-c5cccnc5N)n(-c5ccc(C6(N)CCC6)cc5)c4n3)c2)C(C)(C)C)cc1 [Compound 48, N^1-(3-(3-(4-(1-Aminocyclobutyl)phenyl)-2-(2-aminopyridin-3-yl)-3H-imidazo[4,5-b]pyridin-5-yl)phenethyl)-N^10-((S)-1-((2S,4R)-4-hydroxy-2-((4-(4-methylthiazol-5-yl)benzyl)carbamoyl)pyrrolidin-1-yl)-3,3-dimethyl-1-oxobutan-2-yl)decanediamide], the “T-AKT protein level / AKT degradation” value (AKT [1]) was “particularly effective in T-AKT degradation; also recorded: highly effective AKT degraders” and the “downstream signaling inhibition (P-AKT, P-PRAS40, P-S6; western blot, in words)” value [2] was “particularly effective”.
With Cc1ncsc1-c1ccc(CNC(=O)[C@@H]2C[C@@H](O)CN2C(=O)[C@@H](NC(=O)CCCCCCCCCC(=O)NCCc2cccc(-c3ccc4nc(-c5cccnc5N)n(-c5ccc(C6(N)CCC6)cc5)c4n3)c2)C(C)(C)C)cc1 [Compound 49, N^1-(3-(3-(4-(1-Aminocyclobutyl)phenyl)-2-(2-aminopyridin-3-yl)-3H-imidazo[4,5-b]pyridin-5-yl)phenethyl)-N^11-((S)-1-((2S,4R)-4-hydroxy-2-((4-(4-methylthiazol-5-yl)benzyl)carbamoyl)pyrrolidin-1-yl)-3,3-dimethyl-1-oxobutan-2-yl)undecanediamide] the “T-AKT protein level / AKT degradation” value (AKT [1]) was “particularly effective in T-AKT degradation; also recorded: highly effective AKT degraders” and the “downstream signaling inhibition (P-AKT, P-PRAS40, P-S6; western blot, in words)” value [2] was “particularly effective”.
In the case of Cc1ncsc1-c1ccc([C@H](C)NC(=O)[C@H]2C[C@H](O)CN2C(=O)[C@@H](NC(=O)CCCCCCCCCCNC(=O)CCc2cccc(-c3ccc4nc(-c5cccnc5N)n(-c5ccc(C6(N)CCC6)cc5)c4n3)c2)C(C)(C)C)cc1 [Compound 63, (2R,4S)-1-((S)-2-(11-(3-(3-(3-(4-(1-Aminocyclobutyl)phenyl)-2-(2-aminopyridin-3-yl)-3H-imidazo[4,5-b]pyridin-5-yl)phenyl)propanamido)undecanamido)-3,3-dimethylbutanoyl)-4-hydroxy-N-((S)-1-(4-(4-methylthiazol-5-yl)phenyl)ethyl)pyrrolidine-2-carboxamide], the “T-AKT level (western blot verification for proteomics, in words)” value (AKT [3]; 1 μM, 18 h, Figure S4) is reported as “no effect”, the “effect on AKT protein levels at high concentrations (in words)” value (AKT [3]; concentrations up to 10 μM, 24 h) is reported as “no effect” and the “P-PRAS40 inhibition (western blot verification for proteomics, in words)” value (P-PRAS40; 18 h, Figure S4) is reported as “no effect”.
In the case of Cc1ncsc1-c1ccc(CNC(=O)[C@@H]2C[C@@H](O)CN2C(=O)[C@@H](NC(=O)CCCCCCCCCC(=O)N2CCN(CC[C@H](NC(=O)C3(N)CCN(c4ncnc5[nH]ccc45)CC3)c3ccc(Cl)cc3)CC2)C(C)(C)C)cc1 [MS21, reference compound], the “T-AKT degradation (in words)” value (AKT [3]; indicated concentrations, 24 h, Figure 7E) is reported as “largely ineffective”, the “T-AKT degradation (in words)” value (AKT [4]) is reported as “unable to reduce the AKT protein level” and the “inhibition of colony formation (in words)” value (SW620 cells) is reported as “no effect”.

From PMC9613624 (Journal of medicinal chemistry, 2022)
